The species entered for this test is Rattus norvegicus. Kind of test: Dose required to prevent loss of total bone mineral density of rat distal femur. The class given is functional.

Results on 1 compound are retold here after ChEMBL document CHEMBL1145078, “Discovery and preclinical characterization of (+)-3-[4-(1- piperidinoethoxy)phenyl]spiro[indene- 1,1'-indane]-5,5'-diol hydrochloride: a promising nonsteroidal estrogen receptor agonist for hot flush” (J Med Chem, 2003).

With `Cl.Oc1ccc2c(c1)CCC21C=C(c2ccc(OCCN3CCCCC3)cc2)c2cc(O)ccc21` (single isomer, unassigned; (+)), the Dose was 0.1 mg/kg/day.
